How the values were obtained:
[1] = system: cyno CD138; experiment: FACS binding to Expi293 cells transfected with cyno CD138; design: species or system cynomolgus monkey; conditions: 3-fold dilutions from 33.3 μg/mL
Method: (§1) 12P16F6 hIgG1 or 13P30A7 hIgG1 were tested for cross-reactivity to cynomolgus monkey CD138. Antibodies that cross-react with CD138 from cynomolgus monkey (cyno) have an advantage that they can be tested for toxicity in this strain of non-human primate prior to conducting efficacy trials. Briefly, a vector directing the cell-surface expression of human CD138 or cyno CD138 was transfected in Expi293 cells. Binding of 12P16F6 hIgG1 and 13P30A7 hIgG1 to transfected Expi293 cells was tested at 3-fold dilutions starting at 33.3 μg/mL.

[2] = biological target: T1, human CD138 (Homo sapiens, UniProt P18827); experiment: FACS binding to Expi293 cells transfected with human CD138; conditions: 3-fold dilutions from 33.3 μg/mL
T1 sequence (P18827 23-310): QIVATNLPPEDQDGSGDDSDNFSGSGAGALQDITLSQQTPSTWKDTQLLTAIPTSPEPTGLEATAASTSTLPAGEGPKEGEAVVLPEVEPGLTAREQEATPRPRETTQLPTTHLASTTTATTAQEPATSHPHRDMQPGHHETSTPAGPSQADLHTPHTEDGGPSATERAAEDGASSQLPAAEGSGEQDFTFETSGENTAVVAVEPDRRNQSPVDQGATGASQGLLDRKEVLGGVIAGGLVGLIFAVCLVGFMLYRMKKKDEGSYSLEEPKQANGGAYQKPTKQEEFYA
Method: as §1

cyno CD138, sequence (as listed by the source): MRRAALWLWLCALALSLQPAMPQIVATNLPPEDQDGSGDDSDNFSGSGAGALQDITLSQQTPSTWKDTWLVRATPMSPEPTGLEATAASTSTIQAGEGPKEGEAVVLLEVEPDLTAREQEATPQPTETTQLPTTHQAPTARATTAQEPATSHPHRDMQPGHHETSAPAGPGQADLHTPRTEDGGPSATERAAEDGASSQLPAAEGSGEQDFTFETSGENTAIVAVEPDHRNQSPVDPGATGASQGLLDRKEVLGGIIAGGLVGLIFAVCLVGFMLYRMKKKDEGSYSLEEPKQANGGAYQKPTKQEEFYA

## Secukinumab [reference compound]
[1]
  binding to cynomolgus CD138 expressing cells: little or no specific binding
[2]
  binding to human CD138 expressing cells: little or no specific binding

— patent US20220249679A1 (Mitsubishi Tanabe Pharma Corporation, priority 2018, published 2022)
